Laboratory results as given in patent US9255272B2, “Use of inhibitors of leukotriene B4 receptor BLT2 for treating asthma” (Korea University Research & Business Foundation, priority 2007, dated 2016).

Legend:
[1] = tested on: BLT2 mRNA; assay: BLT2 mRNA in Rat2-BLT2 stable cells (RT-PCR); type: cell-based; details: transient transfection, 24 h
Procedure: Suppressed BLT2 expression level was determined by RT-PCR. Rat2-BI_T2 stable cells were plated at a density of 5×10^4 cells/plate on 6 well plates. After 24 hr, cells were transiently transfected with BLT2 specific antisense and sense oligonucleotide plasmid with Lipofectamin reagent and then incubated in fresh DMEM supplemented with 10% FBS for an additional 24 h. After additional incubation, the transfected cells were harvested for BLT2 transcripts analysis. Total RNA was reverse-transcribed and PCR amplify were performed with BLT2 forward primer: 5′-[…]-3′ (SEQ ID NO: 23) and reverse primer: 5′-[…]-3′ (SEQ ID NO: 24). Non-transfected Rat2-BLT2 stable cells cDNA was used the negative control and GAPDH was shown as internal control.

[2] = tested on: Rac; assay: Endogenous Rac expression in lung tissue (Western blot); type: in vivo, mouse; details: oligonucleotides injected into tail veins, mice sacrificed after 12 hr
Source text: FIGS. 10a and 10b show activation of Rac in the lung tissue by OVA provocation and inhibition of endogenous Rac expression by antisense Rac oligonucleotide treatment. Lung samples were homogenized with micropestle and washed with PBS twice. FIG. 10a depicts Western blot analysis of Rac expression in mouse model of asthma. For membrane protein preparation, cells were suspended in Buffer A and cells were ruptured by passing through 21-G syringe. After ultracentrifugation, protein samples in pelleted membrane fraction were dissolved with buffer A containing 1% Triton X-100. FIG. 10b depicts Western blot analysis of Rac expression in mouse model of asthma administered with asRac. For whole cell lysate preparation, cells from the lung tissues of buffer, control Rac oligonucleotide or antisense Rac oligonucleotide injected mice were suspended with lysis buffer and incubated for 20 min. After centrifugation of the samples, protein quantification was carried out using Bradford reagent and Western blot analysis was performed.
Oligonucleotides, from Genotech Co. (Korea), were synthesized with a phosphorothioate backbone to improve the resistance to endonuclease. The antisense oligonucleotide consisted of 17 nucleotides analogues to the 5′ end of the murine Rac mRNA sequence, which spans the translation initiation site. […]

[3] = tested on: ROS; assay: ROS levels in BAL fluid cells (DCF fluorescence, FACS); type: in vivo, mouse; details: 1.6 mg/kg i.v. 24 hr and 1 hr before 10% OVA; BAL fluid 48 h after challenge
Procedure: (§1) Female BALB/c mice and C57BL/6 mice (7 weeks old; 18-20 g) were obtained from Orientbion Inc. (Seoungnam, Korea). Sensitization and challenge were carried out as described previously with some modification (28). Briefly, female C57BL/6 mice (7 weeks old; 18-20 g) were immunized by intraperitoneal (i.p.) injection of 200 μg ovalbumin (OVA) emulsified in 2.5 mg of adjuvant aluminum hydroperoxide gel (alum) (Pierce, Rockford, Ill.). A second i.p. injection of 20 μg OVA adsorbed onto alum (2.5 mg) was administered 10 days later. After an additional 10 days, mice were exposed to an aerosol of 1% OVA in saline for 30 min daily on 3 consecutive days. On day 25, mice were finally challenged by provocation with 10% OVA aerosol. For inhibition experiments, sense or antisense BLT2 (1.6 mg/kg) was injected intravenously 24 h and then 1 h before the 10% OVA challenge. The mice were then killed on day 27 to assess asthmatic phenotypes. Antisense BLT2 oligonucleotide (5′-[…]-3′ (SEQ ID NO: 15)), sense BLT2 oligonucleotide (5′-[…]-3′ (SEQ ID NO: 16)).
ROS levels in BAL fluids were measured as a function of DCF fluorescence as described previously (30). […] DCF fluorescence was excited at 488 nm and the evoked emission was filtered with a 515-nm long-pass filter. […]

[4] = tested on: OVA-challenged mice; assay: Eosinophil infiltration in BAL fluid of OVA-challenged mice; type: in vivo, mouse; details: C57BL/6 mice, 1.6 mg/kg i.v. 24 hr and 1 hr before 10% OVA challenge, 48 hr
Procedure: as §1
Inflammatory cells in the BAL fluid were collected by centrifugation (1,000 g for 3 min) and washed once in PBS. Cells were counted using a hemocytometer, and viability was assessed by trypan blue exclusion. […]

BLT2 antisense oligonucleotide: BLT2 specific antisense oligonucleotide plasmid transfected into Rat2-BLT2 stable cells (antisense CAGCAGTGTCTCGTT; listed as DNA, chemistry not given here)
level of BLT2 mRNA by RT-PCR [1]: reduced

control Rac: control oligonucleotide of same nucleotide composition, 5′-GATCAGTGCACACAGTG-3′ (SEQ ID NO: 21) (listed as DNA, chemistry not given here) [reference compound]
endogenous expression of Rac in the lung tissues [2]: didn't show significant effect

sense BLT2: sense BLT2 oligonucleotide 5′-GGAATGAGACACTACTGAGC-3′ (SEQ ID NO: 16) (listed as DNA, chemistry not given here) [reference compound]
effect on ROS levels in BAL fluid (in words) [3]: not
effect on eosinophil infiltration in BAL fluids (in words) [4]: no inhibitory effect
